The test system of one data set is S. aureus ATCC 29213. Briefly: Minimum inhibitory concentration (MIC) assay, broth microdilution. Type of data set: cell-based. As to conditions: Staphylococcus aureus, ATCC29213; against S. aureus; visible growth after 18–24 h at 37° C. Here is the method:
(§1) The antimicrobial activity of the compounds of the invention may be evaluated by a number of methods, including the following visual minimum inhibitory concentration (MIC) assay. This assay determines the minimum concentration of compound required to inhibit growth of a bacterial strain. Minimum Inhibitory Concentration (MIC) Assay Whole-cell antibacterial activity is determined by broth microdilution using conditions recommended by the National Committee for Clinical Laboratory Standards (NCCLS). […] Test compounds are dissolved in DMSO and diluted 1:50 in Mueller-Hinton II broth (Becton-Dickinson) to produce a 256 μg/ml stock solution. In a 96-well microtiter plate, the compound solution is serially two-fold diluted in Mueller-Hinton II broth. After the compounds are diluted, a 50 μl aliquot of the test organism (˜1×10^6 cfu/mL) is added to each well of the microtiter plate. The final test concentrations range from 0.125–128 μg/mL. Inoculated plates are incubated in ambient air at 37° C. for 18 to 24 hours. The organisms selected for testing included laboratory strains S. aureus ATCC 29213 and E. coli ATCC 25922 (strains purchased from American Type Culture Collection, Manassas, Va.). The minimum inhibitory concentration (MIC) was determined as the lowest concentration of compound that inhibited visible growth of the test organism.
Background: In broth dilution the organism is exposed to a series of concentrations in liquid medium.

Another data set has as its system E. coli ATCC 25922. The data set is described as above. Type of data set: cell-based. As to conditions: Escherichia coli, ATCC25922; against E. coli; visible growth after 18–24 h at 37° C. Here is the method:
as §1

The target in another data set is T1, E. coli DNA gyrase (Escherichia coli, UniProt P0AES4+P0AES6).
T1 construct: made in house; host or cells: E. coli
The experiment in a line: DNA gyrase supercoiling assay. It counts as biochemical. The settings on record: read-out: inhibition of E. coli DNA gyrase supercoiling IC50. Here is the method: Enzyme activity is measured by a supercoiling assay that monitors the ATP-dependent conversion of relaxed pBR322 DNA to the supercoiled form. Analysis is done by gel electrophoresis through 1% agarose/TBE gel. DNA is visualized with an Alpha Imager 2200 Analysis System and the IC50 determined by nonlinear regression analysis with Graphpad Prism software. E. coli DNA gyrase enzyme subunits, gyrA and gyrB, are purified to homogeneity from over-expression constructs in E. coli.

The target in data set [1] is T2, S. aureus topoisomerase IV (Staphylococcus aureus, UniProt P0C1S7+P0C1U9).
T2 construct: made in house; host or cells: E. coli
The experiment in a line: Topoisomerase IV decatenation assay. Type of data set: biochemical. As for the experimental part: Topoisomerase IV Activity
Enzyme activity is measured by a decatenation assay that monitors the ATP-dependent unlinking of DNA minicircles from kinetoplast DNA. Analysis is done by gel electrophoresis through 1% agarose/TBE gel. DNA is visualized with an Alpha Imager 2200 Analysis System and the IC50 determined by nonlinear regression analysis with Graphpad Prism software. S. aureus topoismerase IV enzyme subunits, grlA and grlB, are purified to homogeneity from over-expression plasmids in E. coli.

A further data set addresses S. aureus DNA gyrase (Staphylococcus aureus, UniProt P0A0K8+P20831). The experiment in a line: DNA gyrase supercoiling assay. Type of data set: biochemical.
The nature of data set [2]: Cell viability staining with Alamar Blue (cytotoxicity). Type of data set: cell-based. The settings on record: human, HEP 2 (laryngeal carcinoma) cells; HEP 2 cells, positive control. (In general: Alamar Blue is a resazurin reagent that responds to reducing activity.)
Procedure: (§2) Optimal cell density is first determined by plating cells in a 96-well plate standard sterile tissue culture plates in 100 μl media, 10%FBS at six cell densities from 500 cells/well to 15,000 cells/well. A cell free well containing only media is used as a control. Cells are incubated at 37° C. in a 5% CO2 incubator for 24 hours. 10% culture volume (10 microliters) of Alamar Blue (Biosource, DAL1100, 100 ml) is then added. Cells are incubated at 37° C. in a 5% CO2 incubator and read in a Victor V plate reader, 544 nm excitation, 590 nm emission, at 3, 4, and 24 hours after the addition of Alamar Blue. The cell number vs. change in fluorescence is plotted to determine linearity of signal vs. cell number. The optimal density varies between 500–15,000 cells/well depending on the specific cell type. The optimal density is selected based on the highest number of cells that is still in the linear response range. Determination of Compound Cytotoxicity Cells are plated at optimal cell density in a standard sterile tissue culture 96 well plate, and incubated at 37° C. O/N in a 5% CO2 incubator. 12 to 48 hours post-plating media is removed. […] Plates are incubated 4 hours at 37° C. in a 5% CO2 incubator and read in a Victor V plate reader, 544 nm excitation, 590 nm emission. […] The change in fluorescence vs. concentration of test compound is plotted to determine the cytotoxicity of the compound.
Assay in data set [3]: as above
Procedure: as §2
The settings on record: Chinese hamster, CHO (Chinese hamster ovary) cells, positive control. It counts as cell-based.

Structures are written as SMILES. Converted amounts (≈) assume the structure as drawn. Like-named read-outs stand apart in the source and are kept apart here. Some results are limits rather than exact numbers.

T1 sequence (P0AES4 whole entry, one chain of several): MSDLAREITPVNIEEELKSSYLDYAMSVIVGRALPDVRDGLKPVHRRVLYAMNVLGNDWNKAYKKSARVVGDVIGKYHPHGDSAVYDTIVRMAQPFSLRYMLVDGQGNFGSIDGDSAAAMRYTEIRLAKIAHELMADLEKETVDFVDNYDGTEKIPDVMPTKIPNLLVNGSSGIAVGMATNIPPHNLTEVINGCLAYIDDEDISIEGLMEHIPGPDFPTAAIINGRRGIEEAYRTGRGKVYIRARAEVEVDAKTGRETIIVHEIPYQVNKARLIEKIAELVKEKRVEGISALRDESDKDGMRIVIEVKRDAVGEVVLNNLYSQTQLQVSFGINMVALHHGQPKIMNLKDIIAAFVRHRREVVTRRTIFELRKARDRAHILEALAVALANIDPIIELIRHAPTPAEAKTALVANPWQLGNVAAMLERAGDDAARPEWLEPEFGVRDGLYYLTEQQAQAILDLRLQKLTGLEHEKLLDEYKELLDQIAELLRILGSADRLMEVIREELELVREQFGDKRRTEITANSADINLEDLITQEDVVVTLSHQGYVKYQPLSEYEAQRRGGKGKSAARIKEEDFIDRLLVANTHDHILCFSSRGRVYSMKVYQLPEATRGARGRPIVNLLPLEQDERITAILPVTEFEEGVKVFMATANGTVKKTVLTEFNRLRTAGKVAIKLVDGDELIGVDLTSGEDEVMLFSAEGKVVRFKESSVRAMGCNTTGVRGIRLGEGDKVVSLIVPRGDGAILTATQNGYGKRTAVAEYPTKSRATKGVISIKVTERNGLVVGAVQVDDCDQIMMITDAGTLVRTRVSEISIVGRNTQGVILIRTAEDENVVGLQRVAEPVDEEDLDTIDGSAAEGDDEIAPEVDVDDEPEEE
Chain of S. aureus DNA gyrase (P20831 whole entry): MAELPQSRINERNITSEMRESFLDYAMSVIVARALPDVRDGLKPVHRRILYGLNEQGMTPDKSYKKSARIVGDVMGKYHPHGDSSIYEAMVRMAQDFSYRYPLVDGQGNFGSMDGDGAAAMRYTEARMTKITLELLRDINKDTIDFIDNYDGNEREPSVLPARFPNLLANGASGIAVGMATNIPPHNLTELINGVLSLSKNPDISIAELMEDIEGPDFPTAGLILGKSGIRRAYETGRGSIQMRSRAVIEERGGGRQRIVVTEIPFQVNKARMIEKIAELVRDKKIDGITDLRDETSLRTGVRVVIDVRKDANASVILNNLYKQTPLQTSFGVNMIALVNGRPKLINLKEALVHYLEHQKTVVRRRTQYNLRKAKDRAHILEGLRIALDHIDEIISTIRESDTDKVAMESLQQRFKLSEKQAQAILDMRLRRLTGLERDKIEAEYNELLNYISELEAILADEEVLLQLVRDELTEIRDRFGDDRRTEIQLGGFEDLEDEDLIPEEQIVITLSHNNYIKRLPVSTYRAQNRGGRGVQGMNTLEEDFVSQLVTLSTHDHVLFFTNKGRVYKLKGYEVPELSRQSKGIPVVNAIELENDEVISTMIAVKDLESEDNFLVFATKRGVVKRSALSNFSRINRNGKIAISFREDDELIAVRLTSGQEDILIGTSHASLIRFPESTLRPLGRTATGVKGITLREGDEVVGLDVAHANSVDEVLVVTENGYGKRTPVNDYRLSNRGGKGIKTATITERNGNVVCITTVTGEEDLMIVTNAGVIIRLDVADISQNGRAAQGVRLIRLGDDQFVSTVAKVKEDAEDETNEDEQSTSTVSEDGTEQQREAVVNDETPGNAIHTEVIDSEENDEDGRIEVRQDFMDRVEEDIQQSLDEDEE
Chain of S. aureus DNA gyrase (P0A0K8 whole entry): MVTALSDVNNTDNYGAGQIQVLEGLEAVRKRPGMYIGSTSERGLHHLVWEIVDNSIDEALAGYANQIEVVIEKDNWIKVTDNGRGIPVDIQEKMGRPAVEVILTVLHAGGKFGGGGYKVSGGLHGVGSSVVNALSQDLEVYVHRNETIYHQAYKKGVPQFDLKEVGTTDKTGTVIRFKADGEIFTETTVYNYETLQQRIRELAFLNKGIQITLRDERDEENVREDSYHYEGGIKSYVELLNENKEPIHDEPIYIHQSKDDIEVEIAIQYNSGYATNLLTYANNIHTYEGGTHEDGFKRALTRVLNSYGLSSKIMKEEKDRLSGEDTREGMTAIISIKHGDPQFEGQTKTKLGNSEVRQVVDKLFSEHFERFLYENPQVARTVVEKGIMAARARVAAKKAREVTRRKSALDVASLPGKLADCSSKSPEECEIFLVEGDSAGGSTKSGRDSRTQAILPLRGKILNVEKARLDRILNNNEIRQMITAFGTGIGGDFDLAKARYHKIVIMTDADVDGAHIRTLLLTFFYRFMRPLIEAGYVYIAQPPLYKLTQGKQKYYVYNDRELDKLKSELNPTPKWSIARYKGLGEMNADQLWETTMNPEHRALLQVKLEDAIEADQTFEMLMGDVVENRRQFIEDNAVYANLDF
T2 sequence (P0C1U9 whole entry): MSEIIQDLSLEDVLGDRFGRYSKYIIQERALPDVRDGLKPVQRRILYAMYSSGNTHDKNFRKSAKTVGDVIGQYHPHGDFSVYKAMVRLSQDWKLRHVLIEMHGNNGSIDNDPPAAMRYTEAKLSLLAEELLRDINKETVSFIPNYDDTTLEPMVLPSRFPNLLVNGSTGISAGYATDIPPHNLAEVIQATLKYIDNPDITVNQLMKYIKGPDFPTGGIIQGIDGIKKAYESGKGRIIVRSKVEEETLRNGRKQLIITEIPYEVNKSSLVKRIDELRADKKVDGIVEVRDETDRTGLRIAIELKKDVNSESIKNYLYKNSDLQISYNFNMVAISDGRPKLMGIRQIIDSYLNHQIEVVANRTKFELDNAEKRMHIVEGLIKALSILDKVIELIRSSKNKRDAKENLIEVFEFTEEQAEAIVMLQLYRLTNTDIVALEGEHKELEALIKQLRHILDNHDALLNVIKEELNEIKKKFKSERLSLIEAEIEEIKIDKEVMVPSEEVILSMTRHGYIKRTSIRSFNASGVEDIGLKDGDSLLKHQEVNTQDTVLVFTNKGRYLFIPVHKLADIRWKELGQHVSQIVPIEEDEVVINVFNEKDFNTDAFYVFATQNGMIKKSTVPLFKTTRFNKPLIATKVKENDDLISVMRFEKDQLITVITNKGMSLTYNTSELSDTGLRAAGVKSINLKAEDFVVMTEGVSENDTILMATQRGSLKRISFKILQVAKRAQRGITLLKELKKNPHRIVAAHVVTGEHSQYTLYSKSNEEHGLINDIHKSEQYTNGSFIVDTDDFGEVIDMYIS
T2 sequence (P0C1S7 whole entry): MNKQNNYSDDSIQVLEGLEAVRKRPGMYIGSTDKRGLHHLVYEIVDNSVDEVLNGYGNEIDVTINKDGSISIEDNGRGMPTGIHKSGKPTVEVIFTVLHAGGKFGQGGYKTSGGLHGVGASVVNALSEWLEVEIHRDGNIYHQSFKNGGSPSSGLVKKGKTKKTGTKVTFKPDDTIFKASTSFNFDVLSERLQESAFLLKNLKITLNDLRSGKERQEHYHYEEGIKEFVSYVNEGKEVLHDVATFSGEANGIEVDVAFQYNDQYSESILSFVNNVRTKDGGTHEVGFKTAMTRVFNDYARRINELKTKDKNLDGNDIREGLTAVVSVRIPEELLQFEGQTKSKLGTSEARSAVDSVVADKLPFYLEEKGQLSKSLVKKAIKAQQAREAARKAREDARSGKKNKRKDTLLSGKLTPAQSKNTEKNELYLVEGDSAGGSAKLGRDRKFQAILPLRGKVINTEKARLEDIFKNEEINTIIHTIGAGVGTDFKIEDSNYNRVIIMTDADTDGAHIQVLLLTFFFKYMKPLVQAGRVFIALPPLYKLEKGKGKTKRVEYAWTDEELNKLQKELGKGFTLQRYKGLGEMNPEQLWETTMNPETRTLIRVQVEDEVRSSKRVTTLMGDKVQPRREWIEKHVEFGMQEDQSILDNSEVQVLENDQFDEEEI

As usually defined, the MIC is the lowest concentration found to suppress growth. A higher MIC goes with a less susceptible organism. As usually defined, the IC50 is the concentration needed to halve the response being measured. `CCc1c2s[nH]c(=O)c2c(=O)n2ccc(N3CCC(N(C)C)C3)cc12` (racemic) [Compound 7, 8-(3-(dimethylamino)pyrrolidin-1-yl)-10-ethyl-2H-isothiazolo[5,4-b]quinolizine-3,4-dione]: the MIC with S. aureus ATCC 29213 and against E. coli ATCC 25922 was 10 µg/mL (≈ 27.9 µM) in each case. Further, the IC50 is < 1 µM on E. coli DNA gyrase and < 10 µM in data set [1].

As to `CCc1c2s[nH]c(=O)c2c(=O)n2ccc(N3CCNCC3)cc12` [Compound 8, 10-ethyl-8-(piperazin-1-yl)-2H-isothiazolo[5,4-b]quinolizine-3,4-dione], the minimum inhibitory concentration (MIC) against S. aureus ATCC 29213 and in the data set with E. coli ATCC 25922 was 10 µg/mL (≈ 30.3 µM) throughout. Moreover, the IC50 on E. coli DNA gyrase was < 1 µM; in data set [1] (read-out: inhibition of S. aureus topoisomerase IV activity IC50) it was < 10 µM; against S. aureus DNA gyrase, > 200 µM.

On to `O=c1[nH]sc2c(C3CC3)c3cc(N4CC(O)C4)c(F)cn3c(=O)c12` [Compound 9, 10-cyclopropyl-7-fluoro-8-(3-hydroxyazetidin-1-yl)-2H-isothiazolo[5,4-b]quinolizine-3,4-dione], for which the half-inhibitory concentration (IC50) against S. aureus DNA gyrase is > 200 µM.

Usually CC50 stands for the concentration at which the toxic effect on the cells reaches its halfway point. Regarding `CC(C)(C)c1ccc(C(O)CCCN2CCC(C(O)(c3ccccc3)c3ccccc3)CC2)cc1` (stereo not drawn) [Terfenadine], the CC50 fell in the range of 3 to 5 µM in data set [2] and 4.3 to 6.5 µM in data set [3].
